From patent US7138361B2, “Herbicidal heterocycles” (E. I. du Pont de Nemours and Company, priority 2000, dated 2006)

Key:
Type in all cases: in vivo
[1] = system: Surinam grass (Brachiaria decumbens); assay: Test B postemergence
Method in brief: (§1)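 Greenhouse test: chemicals are formulated in a surfactant-containing non-phytotoxic solvent and applied either preemergence to planted seeds or postemergence to plants 2 to 18 cm tall. Response is rated visually versus controls after 13 to 15 days, 0 meaning no effect and 100 complete control.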

[2] = system: barnyardgrass (Echinochloa crus-galli); assay: Test B postemergence
Method in brief: as §1

[3] = system: blackgrass (Alopecurus myosuroides); assay: Test B postemergence
Method in brief: as §1

[4] = system: cocklebur (Xanthium strumarium); assay: Test B postemergence
Method in brief: as §1

corn (Zea mays) [5] = assay: Test B postemergence
Method in brief: as §1

[6] = system: crabgrass (Digitaria sanguinalis); assay: Test B postemergence
Method in brief: as §1

[7] = system: giant foxtail (Setaria faberii); assay: Test B postemergence
Method in brief: as §1

[8] = system: lambsquarters (Chenopodium album); assay: Test B postemergence
Method in brief: as §1

[9] = system: morning glory (Ipomoea hederacea); assay: Test B postemergence
Method in brief: as §1

[10] = system: pigweed (Amaranthus retroflexus); assay: Test B postemergence
Method in brief: as §1

[11] = system: velvetleaf (Abutilon theophrasti); assay: Test B postemergence
Method in brief: as §1

[12] = system: wheat (Triticum aestivum); assay: Test B postemergence
Method in brief: as §1

wild oat (Avena fatua) = assay: Test B postemergence
Method in brief: as §1

[13] = system: Surinam grass (Brachiaria decumbens); assay: Test B preemergence
Method in brief: as §1

[14] = system: barnyardgrass (Echinochloa crus-galli); assay: Test B preemergence
Method in brief: as §1

[15] = system: cocklebur (Xanthium strumarium); assay: Test B preemergence
Method in brief: as §1

corn (Zea mays) [16] = assay: Test B preemergence
Method in brief: as §1

[17] = system: crabgrass (Digitaria sanguinalis); assay: Test B preemergence
Method in brief: as §1

[18] = system: giant foxtail (Setaria faberii); assay: Test B preemergence
Method in brief: as §1

[19] = system: lambsquarters (Chenopodium album); assay: Test B preemergence
Method in brief: as §1

[20] = system: morning glory (Ipomoea hederacea); assay: Test B preemergence
Method in brief: as §1

[21] = system: pigweed (Amaranthus retroflexus); assay: Test B preemergence
Method in brief: as §1

rice (Oryza saliva) [22] = assay: Test B preemergence
Method in brief: as §1

[23] = system: velvetleaf (Abutilon theophrasti); assay: Test B preemergence
Method in brief: as §1

[24] = system: barnyardgrass (Echinochloa crus-galli); assay: Test C flooded paddy test; conditions: for Barnyardgrass plant response rating: Flooded Paddy, scale 0 to 100, 0 no effect, 100 complete control; for Plant response rating, Barnyardgrass: flooded paddy test, scale 0 to 100 (0 no effect, 100 complete control)
Method in brief: (§2)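 Visually assessed vs untreated controls 12–14 d post-treatment (greenhouse). Flooded paddy plants were at the 2-leaf stage; scale 0 = no effect, 100 = complete control.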

[25] = system: duck salad (Heteranthera limosa); assay: Test C flooded paddy test; conditions: for Ducksalad plant response rating: Flooded Paddy, scale 0 to 100, 0 no effect, 100 complete control; for Plant response rating, Ducksalad: flooded paddy test, scale 0 to 100 (0 no effect, 100 complete control)
Method in brief: as §2

rice (Oryza saliva) [26] = assay: Test C flooded paddy test; conditions: for Rice plant response rating: Flooded Paddy, scale 0 to 100, 0 no effect, 100 complete control; for Plant response rating, Rice: flooded paddy test, scale 0 to 100 (0 no effect, 100 complete control)
Method in brief: as §2

[27] = system: smallflower flatsedge (Cyperus difformis); assay: Test C flooded paddy test; conditions: for Flatsedge plant response rating: Flooded Paddy, scale 0 to 100, 0 no effect, 100 complete control; for Plant response rating, Flatsedge: flooded paddy test, scale 0 to 100 (0 no effect, 100 complete control)
Method in brief: as §2

[28] = Rate 125 g/ha, scale 0 to 100, 0 no effect, 100 complete control
[29] = Rate 500 g/ha, scale 0 to 100, 0 is no effect, 100 is complete control, 13 to 15 days
[30] = Preemergence, Rate 500 g/ha, scale 0 to 100, 0 no effect, 100 complete control
[31] = preemergence, Rate 125 g/ha, scale of 0 to 100 where 0 is no effect and 100 is complete control, 13 to 15 days

CCCCC(CCCC)c1ccn(C2OCN(c3cccc(OC(F)(F)F)c3)C2=O)n1 (stereo not shown) [Compound 113]
Plant response rating, Surinam grass [1, 28]: 0 | Plant response rating, Surinam grass [1, 29]: 0 | Plant response rating, Barnyardgrass [2, 28]: 0 | Plant response rating, Barnyardgrass [2, 29]: 0 | Plant response rating, Blackgrass [3, 28]: 0 | Plant response rating, Blackgrass [3, 29]: 0 | Plant response rating, Cocklebur [4, 28]: 0 | Plant response rating, Cocklebur [4, 29]: 70 | Plant response rating, Corn (corn (Zea mays) [5]; [28]): 0 | Plant response rating, Corn (corn (Zea mays) [5]; [29]): 0 | Plant response rating, Crabgrass [6, 28]: 40 | Plant response rating, Crabgrass [6, 29]: 40 | Plant response rating, Foxtail, Giant [7, 28]: 0 | Plant response rating, Foxtail, Giant [7, 29]: 20 | Plant response rating, Lambsquarters [8, 28]: 30 | Plant response rating, Lambsquarters [8, 29]: 100 | Plant response rating, Morningglory [9, 28]: 0 | Plant response rating, Morningglory [9, 29]: 30 | Plant response rating, Pigweed [10, 28]: 100 | Plant response rating, Pigweed [10, 29]: 100 | Plant response rating, Velvetleaf [11, 28]: 0 | Plant response rating, Velvetleaf [11, 29]: 0 | Plant response rating, Wheat [12, 28]: 30 | Plant response rating, Wheat [12, 29]: 30 | Plant response rating, Wild Oat (wild oat (Avena fatua); [28]): 40 | Plant response rating, Wild Oat (wild oat (Avena fatua); [29]): 40 | Plant response rating, Surinam grass [13, 30]: 0 | Plant response rating, Surinam grass [13, 31]: 0 | Plant response rating, Barnyardgrass [14, 30]: 0 | Plant response rating, Barnyardgrass [14, 31]: 0 | Plant response rating, Cocklebur [15, 30]: 0 | Plant response rating, Cocklebur [15, 31]: 0 | Plant response rating, Corn (corn (Zea mays) [16]; [30]): 0 | Plant response rating, Corn (corn (Zea mays) [16]; [31]): 0 | Plant response rating, Crabgrass [17, 30]: 0 | Plant response rating, Crabgrass [17, 31]: 0 | Plant response rating, Foxtail, Giant [18, 30]: 0 | Plant response rating, Foxtail, Giant [18, 31]: 0 | Plant response rating, Lambsquarters [19, 30]: 0 | Plant response rating, Lambsquarters [19, 31]: 0 | Plant response rating, Morningglory [20, 30]: 0 | Plant response rating, Morningglory [20, 31]: 0 | Plant response rating, Pigweed [21, 30]: 0 | Plant response rating, Pigweed [21, 31]: 0 | Plant response rating, Rice (rice (Oryza saliva) [22]; [30]): 0 | Plant response rating, Rice (rice (Oryza saliva) [22]; [31]): 0 | Plant response rating, Velvetleaf [23, 30]: 0 | Plant response rating, Velvetleaf [23, 31]: 0 | Barnyardgrass plant response rating ([24]; Rate 250 g/ha): 0 | Barnyardgrass plant response rating ([24]; Rate 500 g/ha): 0 | Plant response rating, Barnyardgrass ([24]; Rate 62 g/ha): 0 | Plant response rating, Barnyardgrass ([24]; Rate 125 g/ha): 0 | Ducksalad plant response rating ([25]; Rate 250 g/ha): 0 | Ducksalad plant response rating ([25]; Rate 500 g/ha): 0 | Plant response rating, Ducksalad ([25]; Rate 62 g/ha): 0 | Plant response rating, Ducksalad ([25]; Rate 125 g/ha): 0 | Rice plant response rating (rice (Oryza saliva) [26]; Rate 250 g/ha): 0 | Rice plant response rating (rice (Oryza saliva) [26]; Rate 500 g/ha): 0 | Plant response rating, Rice (rice (Oryza saliva) [26]; Rate 62 g/ha): 0 | Plant response rating, Rice (rice (Oryza saliva) [26]; Rate 125 g/ha): 0 | Flatsedge plant response rating ([27]; Rate 250 g/ha): 0 | Flatsedge plant response rating ([27]; Rate 500 g/ha): 0 | Plant response rating, Flatsedge ([27]; Rate 62 g/ha): 0 | Plant response rating, Flatsedge ([27]; Rate 125 g/ha): 0
